{"source": "patent US7906486B2", "about": "“Method of treating or preventing tissue deterioration, injury or damage due to disease of mucosa” (SciClone Pharmaceuticals, Inc., priority 2007, dated 2011)", "system": "oral mucositis induced by cis-platin 5 mg/kg and radiation 35 Gy (left cheek pouch)", "test": "Oral mucositis induced by a combination of cisplatin and acute radiation in hamsters, mucositis scoring (Example 4, SCI-04)", "assay_type": "in vivo, Syrian Golden Hamsters", "parameters": "key: 0: Pouch completely healthy. No erythema or vasodilation.; 1: Light to severe erythema and vasodilation. No erosion of mucosa.; 2: Severe erythema and vasodilation. Erosion of superficial aspects of mucosa leaving denuded areas. Decreased stippling of mucosa.; 3: Formation of off-white ulcers in one or more places. Ulcers may have a yellow/gray due to pseudomembrane. Cumulative size of ulcers should equal about ¼ of the pouch. Severe erythema and vasodilation.; 4: Cumulative seize of ulcers should equal about ½ of the pouch. Loss of pliability. Severe erythema and vasodilation.; 5: Virtually all of pouch is ulcerated. Loss of pliability (pouch can only partially be extracted from mouth)", "details": "Group 2 (SCV-07 10 μg/kg, day -1 to day 20), individual animal scores, two scores per animal", "method": "Forty Golden Syrian hamsters were prospectively randomized into four equally sized groups. Mucositis was induced on the left cheek pouch mucosa of golden Syrian hamsters by a single dose of cis-platin at 5 mg/kg given on day −1, and a single dose of radiation administered on day 0 at a dose of 35Gy. Beginning on day −1 and continuing once daily until day 20, SCV-07 was given by sub-cutaneous injection at doses of 10 μg/kg, 100 μg/kg or 1 mg/kg in a volume of 100 μL. Animals' activity and weight were evaluated daily. Beginning on day 6 and continuing on alternate days for the duration of the study, oral mucositis was evaluated using a standard scoring six point scale. The number of days of ulcerative mucositis was evaluated using a Chi-squared test of scores of ≧3 throughout the study, and the individual daily group scores were assessed with a Rank Sum Test.\nThe chemo-radiation model of oral mucositis in hamsters, developed by the Principal Investigator, has proven to be an accurate, efficient and cost-effective technique to provide a preliminary evaluation of anti-mucositis compounds. In this model, hamsters received a single dose of cis-platin at 5 mg/kg on day −1, followed by a single dose of radiation of 35 Gy to the left cheek pouch on day 0, rather than the single dose of 40 Gy on day 0 that is used in acute radiation studies. The course of mucositis in this model is very similar to the acute radiation model and results in peak mucositis scores approximately 16-18 days following radiation.\nHamsters received a single dose of cis-platin at 5 mg/kg on day −1 by intra-peritoneal injection, followed by a single dose of radiation of 35 Gy to the left cheek pouch on day 0. This was accomplished by anesthetizing the animals and everting the left buccal pouch, while protecting the rest of the animal's bodies with a lead shield. Test materials were given by sub-cutaneous injection once daily as detailed in Table 13. Mucositis was evaluated clinically starting on day 6, and continuing on alternate days until day 28. Test articles were given as from day −1 to day 20.\nThe grade of mucositis was scored, beginning day 6, and for every second day thereafter, through and including day 28. The effect on mucositis of each drug treatment compared to placebo was assessed according to the following parameters:\nOn each evaluation day, the number of animals with a blinded mucositis score of ≧3 in each drug treatment group was compared to the control group. Differences were compared on a cumulative basis and statistical significance was determined by chi-square analysis. Efficacy, in this analysis, is defined by a significant reduction in the number of days that a group of animals had ulcerations (scores 3) when compared to the control group.\nFor each evaluation day the scores of the control group were compared to those of the treated groups using non-parametric rank sum analysis. Treatment success was considered as a statistically significant lowering of scores in the treated group on 2 or more days from day 6 to day 28.\nForty (40) male Syrian Golden Hamsters were given an intraperitoneal injection of 5 mg/kg Cisplatin on day −1. On day 0 all animals were given an acute radiation dose of 35 Gy directed to their left buccal cheek pouch. This was accomplished by anesthetizing the animals and everting the left buccal pouch, while protecting the rest of the animals with a lead shield. Test materials were given by subcutaneous injection once daily as detailed in Table 13. Mucositis was evaluated clinically starting on Day 6, and continued on alternate days until day 28.\nIn this study, mucositis was induced with a combination of Cis-platin and radiation. Cis-platin was given as a single injection (IP) of 5 mg/kg on day −1. Radiation was given as a single focal dose of 35 Gy on day 0. Radiation was generated with a Philips 160 kVp (kilovolt potential) (18.75-ma) X-ray source at a focal distance of 30 cm, with a 3.0 mm hardened Al filtration system. […]", "note": "Values joined by “and” are separate entries in the source; they are usually repeats but may differ in a detail not shown here. Equal entries are not always repeated."}
{"smiles": "N[C@H](CCC(=O)N[C@@H](Cc1c[nH]c2ccccc12)C(=O)O)C(=O)O", "note": "[SCV-07, γ-D-glutamyl-L-tryptophan]", "values": [{"measurement": "Mucositis score, day 10", "setting": "day 10", "result": 1}, {"measurement": "Mucositis score, day 12", "setting": "day 12", "result": 3}, {"measurement": "Mucositis score, day 14", "setting": "day 14", "result": 3}, {"measurement": "Mucositis score, day 16", "setting": "day 16", "result": "3 (14×) and 4 (2×)"}, {"measurement": "Mucositis score, day 18", "setting": "day 18", "result": "3 (12×) and 4 (2×)"}, {"measurement": "Mucositis score, day 20", "setting": "day 20", "result": "3 (12×) and 1"}, {"measurement": "Mucositis score, day 22", "setting": "day 22", "result": "1 (4×) and 3 (8×)"}, {"measurement": "Mucositis score, day 24", "setting": "day 24", "result": "1 (5×) and 3 (4×)"}, {"measurement": "Mucositis score, day 26", "setting": "day 26", "result": "1 (11×) and 3 (4×)"}, {"measurement": "Mucositis score, day 28", "setting": "day 28", "result": "0 (7×) and 1 (8×) and 3 (2×)"}]}
